Experimental data taken from BindingDB's records for doi:10.1016/S0960-894X(97)10107-X (1997).

Molecular target: 1,3-beta-glucan synthase (Candida albicans)
Test: In vitro inhibition of 1,3-beta-glucan synthase in Candida albicans membrane assay.

Row | IC50 [nM] | SMILES
1 | 70 | CCC(C)CC(C)CCCCCCCCC(=O)N[C@@H]1C[C@@H](O)CNC(=O)[C@@H]2[C@@H](O)CCN2C(=O)[C@H]([C@@H](O)CC(N)=O)NC(=O)[C@H]([C@@H](O)Cc2ccc(O)cc2)NC(=O)[C@@H]2C[C@@H](O)CN2C(=O)[C@H]([C@@H](C)O)NC1=O (some centres undefined) [Pneumocandin analogue]
2 | 2900 | CCC(C)CC(C)CCCCCCCCC(=O)N[C@@H]1C[C@@H](O)[C@@H](O)NC(=O)[C@@H]2[C@@H](O)CCN2C(=O)[C@H]([C@@H](O)CC(N)=O)NC(=O)[C@H]([C@@H](O)[C@H](O)c2ccc(O)c([N+](=O)[O-])c2)NC(=O)[C@@H]2C[C@@H](O)CN2C(=O)[C@H]([C@@H](C)O)NC1=O (some centres undefined) [Pneumocandin analogue]
3 | 80 | C=Cc1cc(C[C@H](O)[C@@H]2NC(=O)[C@@H]3C[C@@H](O)CN3C(=O)[C@H]([C@@H](C)O)NC(=O)[C@H](NC(=O)CCCCCCCCC(C)CC(C)CC)C[C@@H](O)CNC(=O)[C@@H]3[C@@H](O)CCN3C(=O)[C@H]([C@@H](O)CC(N)=O)NC2=O)ccc1O (some centres undefined) [Pneumocandin analogue]
4 | 260 | CCc1cc(C[C@H](O)[C@@H]2NC(=O)[C@@H]3C[C@@H](O)CN3C(=O)[C@H]([C@@H](C)O)NC(=O)[C@H](NC(=O)CCCCCCCCC(C)CC(C)CC)C[C@@H](O)CNC(=O)[C@@H]3[C@@H](O)CCN3C(=O)[C@H]([C@@H](O)CC(N)=O)NC2=O)ccc1O (some centres undefined) [Pneumocandin analogue]
5 | 100 | CCC(C)CC(C)CCCCCCCCC(=O)N[C@@H]1C[C@@H](O)[C@@H](O)NC(=O)[C@@H]2[C@@H](O)CCN2C(=O)[C@H]([C@@H](O)CC(N)=O)NC(=O)[C@H]([C@@H](O)[C@H](O)c2ccc(O)c(I)c2)NC(=O)[C@@H]2C[C@@H](O)CN2C(=O)[C@H]([C@@H](C)O)NC1=O (some centres undefined) [Pneumocandin analogue]
6 | > 5000 | CCC(C)CC(C)CCCCCCCCC(=O)N[C@@H]1C[C@@H](O)CNC(=O)[C@@H]2[C@@H](O)CCN2C(=O)[C@H]([C@@H](O)CC(N)=O)NC(=O)[C@H]([C@@H](O)Cc2ccc(O)c(C=O)c2)NC(=O)[C@@H]2C[C@@H](O)CN2C(=O)[C@H]([C@@H](C)O)NC1=O (some centres undefined) [Pneumocandin analogue]
7 | 35 | CCC(C)CC(C)CCCCCCCCC(=O)N[C@@H]1C[C@@H](O)[C@@H](O)NC(=O)[C@@H]2[C@@H](O)CCN2C(=O)[C@H]([C@@H](O)CC(N)=O)NC(=O)[C@H]([C@@H](O)[C@H](O)c2ccc(O)c(NC(=O)CN)c2)NC(=O)[C@@H]2C[C@@H](O)CN2C(=O)[C@H]([C@@H](C)O)NC1=O (some centres undefined) [Pneumocandin analogue]
8 | 3000 | CCC(C)CC(C)CCCCCCCCC(=O)N[C@@H]1C[C@@H](O)CNC(=O)[C@@H]2[C@@H](O)CCN2C(=O)[C@H]([C@@H](O)CC(N)=O)NC(=O)[C@H]([C@@H](O)Cc2ccc(O)c(C(=O)OC)c2)NC(=O)[C@@H]2C[C@@H](O)CN2C(=O)[C@H]([C@@H](C)O)NC1=O (some centres undefined) [Pneumocandin analogue]
9 | 70 | CCC(C)CC(C)CCCCCCCCC(=O)N[C@@H]1C[C@@H](O)[C@@H](O)NC(=O)[C@@H]2[C@@H](O)CCN2C(=O)[C@H]([C@@H](O)CC(N)=O)NC(=O)[C@H]([C@@H](O)[C@H](O)c2ccc(O)c(NC(=O)CCN)c2)NC(=O)[C@@H]2C[C@@H](O)CN2C(=O)[C@H]([C@@H](C)O)NC1=O (some centres undefined) [Pneumocandin analogue]
10 | 150 | CCC(C)CC(C)CCCCCCCCC(=O)N[C@@H]1C[C@@H](O)[C@@H](O)NC(=O)[C@@H]2[C@@H](O)CCN2C(=O)[C@H]([C@@H](O)CC(N)=O)NC(=O)[C@H]([C@@H](O)[C@H](O)c2ccc(O)c(NC(=O)CCC(=O)O)c2)NC(=O)[C@@H]2C[C@@H](O)CN2C(=O)[C@H]([C@@H](C)O)NC1=O (some centres undefined) [Pneumocandin analogue]
11 | 100 | CCC(C)CC(C)CCCCCCCCC(=O)N[C@@H]1C[C@@H](O)CNC(=O)[C@@H]2[C@@H](O)CCN2C(=O)[C@H]([C@@H](O)CC(N)=O)NC(=O)[C@H]([C@@H](O)Cc2ccc(O)c(I)c2)NC(=O)[C@@H]2C[C@@H](O)CN2C(=O)[C@H]([C@@H](C)O)NC1=O (some centres undefined) [Pneumocandin analogue]
12 | 200 | CCC(C)CC(C)CCCCCCCCC(=O)N[C@@H]1C[C@@H](O)CNC(=O)[C@@H]2[C@@H](O)CCN2C(=O)[C@H]([C@@H](O)CC(N)=O)NC(=O)[C@H]([C@@H](O)Cc2ccc(O)c(CCN)c2)NC(=O)[C@@H]2C[C@@H](O)CN2C(=O)[C@H]([C@@H](C)O)NC1=O (some centres undefined) [Pneumocandin analogue]
13 | > 10000 | CCC(C)CC(C)CCCCCCCCC(=O)N[C@@H]1C[C@@H](O)[C@@H](O)NC(=O)[C@@H]2[C@@H](O)CCN2C(=O)[C@H]([C@@H](O)CC(N)=O)NC(=O)[C@H]([C@@H](O)[C@H](O)c2cc(I)c(O)c(I)c2)NC(=O)[C@@H]2C[C@@H](O)CN2C(=O)[C@H]([C@@H](C)O)NC1=O (some centres undefined) [Pneumocandin analogue]
14 | 40 | CCC(C)CC(C)CCCCCCCCC(=O)N[C@@H]1C[C@@H](O)[C@@H](O)NC(=O)[C@@H]2[C@@H](O)CCN2C(=O)[C@H]([C@@H](O)CC(N)=O)NC(=O)[C@H]([C@@H](O)[C@H](O)c2ccc(O)c(N)c2)NC(=O)[C@@H]2C[C@@H](O)CN2C(=O)[C@H]([C@@H](C)O)NC1=O (some centres undefined) [Pneumocandin analogue]
15 | 600 | CCCc1cc(C[C@H](O)[C@@H]2NC(=O)[C@@H]3C[C@@H](O)CN3C(=O)[C@H]([C@@H](C)O)NC(=O)[C@H](NC(=O)CCCCCCCCC(C)CC(C)CC)C[C@@H](O)CNC(=O)[C@@H]3[C@@H](O)CCN3C(=O)[C@H]([C@@H](O)CC(N)=O)NC2=O)ccc1O (some centres undefined) [Pneumocandin analogue]
16 | 4000 | CCC(C)CC(C)CCCCCCCCC(=O)N[C@@H]1C[C@@H](O)CNC(=O)[C@@H]2[C@@H](O)CCN2C(=O)[C@H]([C@@H](O)CC(N)=O)NC(=O)[C@H]([C@@H](O)Cc2ccc(O)c([N+](=O)[O-])c2)NC(=O)[C@@H]2C[C@@H](O)CN2C(=O)[C@H]([C@@H](C)O)NC1=O (some centres undefined) [Pneumocandin analogue]
17 | 60 | CCC(C)CC(C)CCCCCCCCC(=O)N[C@@H]1C[C@@H](O)CNC(=O)[C@@H]2[C@@H](O)CCN2C(=O)[C@H]([C@@H](O)CC(N)=O)NC(=O)[C@H]([C@@H](O)Cc2ccc(O)c(CCO)c2)NC(=O)[C@@H]2C[C@@H](O)CN2C(=O)[C@H]([C@@H](C)O)NC1=O (some centres undefined) [Pneumocandin analogue]
18 | 150 | CCC(C)CC(C)CCCCCCCCC(=O)N[C@@H]1C[C@@H](O)CNC(=O)[C@@H]2[C@@H](O)CCN2C(=O)[C@H]([C@@H](O)CC(N)=O)NC(=O)[C@H]([C@@H](O)Cc2ccc(O)c(/C=C/C(=O)OC)c2)NC(=O)[C@@H]2C[C@@H](O)CN2C(=O)[C@H]([C@@H](C)O)NC1=O (some centres undefined) [Pneumocandin analogue]
19 | 50 | CCC(C)CC(C)CCCCCCCCC(=O)N[C@@H]1C[C@@H](O)CNC(=O)[C@@H]2[C@@H](O)CCN2C(=O)[C@H]([C@@H](O)CC(N)=O)NC(=O)[C@H]([C@@H](O)Cc2ccc(O)c(N)c2)NC(=O)[C@@H]2C[C@@H](O)CN2C(=O)[C@H]([C@@H](C)O)NC1=O (some centres undefined) [Pneumocandin analogue]
